Patent publication US11370798B2 (Vertex Pharmaceuticals Incorporated, priority 2012, dated 2022)

System: HCT116 colorectal cancer cells
Test: Cisplatin sensitization assay (96 h cell viability MTS);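 also: Test-compound concentration that lowers the Cisplatin IC50 by a set fold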
Format: cell-based
Conditions: compound and Cisplatin added simultaneously, Cisplatin sensitization value
Outline: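 Compound and cisplatin added together as a full matrix of 2-fold serial dilutions from a top final concentration of 10 μM; cells incubated 96 h at 37° C, 5% CO2. Viability then read by MTS after 1 h further incubation; sensitization value reported in μM bins.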

With CN(C)CCOc1cc(C(F)(F)F)ncc1NC(=O)c1c(N)nn2cc(Cl)cnc12 [I-O-71, 2-amino-6-chloro-N-(4-(2-(dimethylamino)ethoxy)-6-(trifluoromethyl)pyridin-3-yl)pyrazolo[1,5-a]pyrimidine-3-carboxamide] the “Cisplatin Sensitization Assay” value was “+ (Cisplatin sensitization value>0.2 μM but <5 μM)”.

With Nc1nn2cc(Cl)cnc2c1C(=O)Nc1cnccc1OC1CC2(CNC2)C1 [I-O-72, N-(4-(2-azaspiro[3.3]heptan-6-yloxy)pyridin-3-yl)-2-amino-6-chloropyrazolo[1,5-a]pyrimidine-3-carboxamide] the “Cisplatin Sensitization Assay” value was “+ (Cisplatin sensitization value>0.2 μM but <5 μM)”.

Nc1nn2cc(Cl)cnc2c1C(=O)Nc1cnccc1OC1CNC1 [I-O-73, 2-amino-N-(4-(azetidin-3-yloxy)pyridin-3-yl)-6-chloropyrazolo[1,5-a]pyrimidine-3-carboxamide] was tested, and the “Cisplatin Sensitization Assay” value was “+ (Cisplatin sensitization value>0.2 μM but <5 μM)”.

Nc1nn2cc(Cl)cnc2c1C(=O)Nc1cnccc1O[C@H]1CCCNC1 [I-O-74, (S)-2-amino-6-chloro-N-(4-(piperidin-3-yloxy)pyridin-3-yl)pyrazolo[1,5-a]pyrimidine-3-carboxamide] was tested, and the “Cisplatin Sensitization Assay” value was “++ (Cisplatin sensitization value>0.02 μM but <0.2 μM)”.

With Nc1nn2cc(Cl)cnc2c1C(=O)Nc1cnccc1OC1CCCNC1 (stereo not shown) [I-O-75, 2-amino-6-chloro-N-(4-(piperidin-3-yloxy)pyridin-3-yl)pyrazolo[1,5-a]pyrimidine-3-carboxamide] the “Cisplatin Sensitization Assay” value was “++ (Cisplatin sensitization value>0.02 μM but <0.2 μM)”.

In the case of Nc1nn2cc(Cl)cnc2c1C(=O)Nc1cnccc1O[C@H]1CCNC1 [I-O-76, (S)-2-amino-6-chloro-N-(4-(pyrrolidin-3-yloxy)pyridin-3-yl)pyrazolo[1,5-a]pyrimidine-3-carboxamide], the “Cisplatin Sensitization Assay” value is reported as “++ (Cisplatin sensitization value>0.02 μM but <0.2 μM)”.

In the case of Nc1nn2cc(Cl)cnc2c1C(=O)Nc1cnccc1O[C@@H]1CCNC1 [I-O-77, (R)-2-amino-6-chloro-N-(4-(pyrrolidin-3-yloxy)pyridin-3-yl)pyrazolo[1,5-a]pyrimidine-3-carboxamide], the “Cisplatin Sensitization Assay” value is reported as “++ (Cisplatin sensitization value>0.02 μM but <0.2 μM)”.

With Nc1nn2cc(Cl)cnc2c1C(=O)Nc1cnccc1O[C@H]1C[C@]2(CCN2)C1 [I-O-78, N-(4-((4s,6r)-1-azaspiro[3.3]heptan-6-yloxy)pyridin-3-yl)-2-amino-6-chloropyrazolo[1,5-a]pyrimidine-3-carboxamide] the “Cisplatin Sensitization Assay” value was “+ (Cisplatin sensitization value>0.2 μM but <5 μM)”.

Nc1nn2cc(Cl)cnc2c1C(=O)Nc1cnccc1O[C@H]1C[C@@]2(CCN2)C1 [I-O-79, N-(4-((4r,6s)-1-azaspiro[3.3]heptan-6-yloxy)pyridin-3-yl)-2-amino-6-chloropyrazolo[1,5-a]pyrimidine-3-carboxamide] was tested, and the “Cisplatin Sensitization Assay” value was “++ (Cisplatin sensitization value>0.02 μM but <0.2 μM)”.

With Nc1nn2cc(Cl)cnc2c1C(=O)Nc1cnccc1OC1CCNCC1 [I-O-80, 2-amino-6-chloro-N-(4-(piperidin-4-yloxy)pyridin-3-yl)pyrazolo[1,5-a]pyrimidine-3-carboxamide] the “Cisplatin Sensitization Assay” value was “+++ (Cisplatin sensitization value of <0.02 μM)”.

Nc1nn2cc(Cl)cnc2c1C(=O)Nc1cnccc1O[C@@H]1CCCNC1 [I-O-81, (R)-2-amino-6-chloro-N-(4-(piperidin-3-yloxy)pyridin-3-yl)pyrazolo[1,5-a]pyrimidine-3-carboxamide] was tested, and the “Cisplatin Sensitization Assay” value was “++ (Cisplatin sensitization value>0.02 μM but <0.2 μM)”.

For N#CCc1cnc2c(C(=O)Nc3cnccc3OC3CNC3)c(N)nn2c1 [I-O-82, 2-amino-N-(4-(azetidin-3-yloxy)pyridin-3-yl)-6-(cyanomethyl)pyrazolo[1,5-a]pyrimidine-3-carboxamide], the “Cisplatin Sensitization Assay” value was “++ (Cisplatin sensitization value>0.02 μM but <0.2 μM)”.

For N#CCc1cnc2c(C(=O)Nc3cnccc3OCCN)c(N)nn2c1 [I-O-83, 2-amino-N-(4-(2-aminoethoxy)pyridin-3-yl)-6-(cyanomethyl)pyrazolo[1,5-a]pyrimidine-3-carboxamide], the “Cisplatin Sensitization Assay” value was “+++ (Cisplatin sensitization value of <0.02 μM)”.

In the case of N#CCc1cnc2c(C(=O)Nc3cnccc3OC3CCNCC3)c(N)nn2c1 [I-O-84, 2-amino-6-(cyanomethyl)-N-(4-(piperidin-4-yloxy)pyridin-3-yl)pyrazolo[1,5-a]pyrimidine-3-carboxamide], the “Cisplatin Sensitization Assay” value is reported as “++ (Cisplatin sensitization value>0.02 μM but <0.2 μM)”.

With Nc1nn2cc(F)cnc2c1C(=O)Nc1cnccc1O[C@H]1CCCNC1 [I-O-85, (S)-2-amino-6-fluoro-N-(4-(piperidin-3-yloxy)pyridin-3-yl)pyrazolo[1,5-a]pyrimidine-3-carboxamide] the “Cisplatin Sensitization Assay” value was “+++ (Cisplatin sensitization value of <0.02 μM)”.

N#CCc1cnc2c(C(=O)Nc3cnccc3O[C@H]3CCNC3)c(N)nn2c1 [I-O-86, (S)-2-amino-6-(cyanomethyl)-N-(4-(pyrrolidin-3-yloxy)pyridin-3-yl)pyrazolo[1,5-a]pyrimidine-3-carboxamide] was tested, and the “Cisplatin Sensitization Assay” value was “++ (Cisplatin sensitization value>0.02 μM but <0.2 μM)”.

For N#CCc1cnc2c(C(=O)Nc3cnccc3O[C@@H]3CCNC3)c(N)nn2c1 [I-O-87, (R)-2-amino-6-(cyanomethyl)-N-(4-(pyrrolidin-3-yloxy)pyridin-3-yl)pyrazolo[1,5-a]pyrimidine-3-carboxamide], the “Cisplatin Sensitization Assay” value was “++ (Cisplatin sensitization value>0.02 μM but <0.2 μM)”.

For CC(C)(C)Oc1ccncc1NC(=O)c1c(N)nn2cc(F)cnc12 [I-O-88, 2-amino-N-(4-(tert-butoxy)pyridin-3-yl)-6-fluoropyrazolo[1,5-a]pyrimidine-3-carboxamide], the “Cisplatin Sensitization Assay” value was “+++ (Cisplatin sensitization value of <0.02 μM)”.

With CN1CCC(Oc2c(F)cncc2NC(=O)c2c(N)nn3cc(F)cnc23)CC1 [I-O-89, 2-amino-6-fluoro-N-(5-fluoro-4-((1-methylpiperidin-4-yl)oxy)pyridin-3-yl)pyrazolo[1,5-a]pyrimidine-3-carboxamide] the “Cisplatin Sensitization Assay” value was “++ (Cisplatin sensitization value>0.02 μM but <0.2 μM)”.

With CNc1cc(OC)c(NC(=O)c2c(N)nn3cc(F)cnc23)cn1 [I-O-90, 2-amino-6-fluoro-N-(4-methoxy-6-(methylamino)pyridin-3-yl)pyrazolo[1,5-a]pyrimidine-3-carboxamide] the “Cisplatin Sensitization Assay” value was “+ (Cisplatin sensitization value>0.2 μM but <5 μM)”.

In the case of Nc1nn2cc(F)cnc2c1C(=O)Nc1cncc(F)c1OC1CCN(C2COC2)CC1 [I-O-91, 2-amino-6-fluoro-N-(5-fluoro-4-((1-(oxetan-3-yl)piperidin-4-yl)oxy)pyridin-3-yl)pyrazolo[1,5-a]pyrimidine-3-carboxamide], the “Cisplatin Sensitization Assay” value is reported as “++ (Cisplatin sensitization value>0.02 μM but <0.2 μM)”.

With Nc1nn2cc(F)cnc2c1C(=O)Nc1cnccc1OC1COC1 [I-O-92, 2-amino-6-fluoro-N-(4-(oxetan-3-yloxy)pyridin-3-yl)pyrazolo[1,5-a]pyrimidine-3-carboxamide] the “Cisplatin Sensitization Assay” value was “+++ (Cisplatin sensitization value of <0.02 μM)”.
